Results reported in paper PMC8298375 (Naunyn-Schmiedeberg's Archives of Pharmacology, 2021).
Where two headings read alike, the source gives them in different places.

Legend:
[1] = test system: scopolamine-induced amnesia rats; test: Passive avoidance test, scopolamine-induced amnesia (acute model); type: in vivo, Wistar rats; details: Mean ± SEM; for Latency time: time to enter darker compartment
Experimental: In the acute model, the rats were trained for Morris water maze (MWM) and passive avoidance test (PAT) tasks in the first 4 days. On the 5th day, 30 min after scopolamine administration, respective treatments were given to all the groups. Fifteen minutes thereafter, the test trials were conducted in MWM and PAT.
The passive avoidance apparatus consists of a larger illuminated compartment and a smaller dark compartment. Each consists of a square box, with a floor grid of 50 × 50 cm and wooden walls of 35-cm height in larger compartment. Larger box was illuminated by 15 W Philips CFL lamp. A smaller dark compartment of 15 × 15 cm with an electrified floor is connected to a constant current stimulator. An opening 6 × 6 cm in between the two compartments was closed using a transparent plexiglass sliding door. The test procedure was carried out in three phases, exploration, learning, and retention (Praveenkumar [2019]).
First day, the animal was placed in the center of the illuminated larger compartment facing away from the entrance to the small darker compartment and allowed to explore the apparatus, i.e., both compartments for 3 min. Total time spent in the larger and smaller compartments and the number of crossings (from larger to smaller compartments and vice versa; a measure of exploratory behavior) were noted. On the second day, animal was placed in the illuminated larger compartment facing away from the entrance to the darker compartment. Once the animal entered the darker compartment, the entrance to the larger compartment was closed, and three strong electric foot shocks (50 Hz, 0.5 mA, 2 s) with 10-s intervals were applied. On the third day, rats were placed in the illuminated larger compartment and allowed to explore both the compartments for 3 min. The parameters assessed are latency time to enter into darker compartment, time spent in the darker and brighter compartments, and the number of crossings between the compartments.

AChE [2] = type: in vivo, rat; details: scopolamine model; for % AChE Inhibition: plasma
Experimental: Samples were then centrifuged at 10,000 rpm for 5 min, and plasma was stored at − 70 °C until analysis.
(§1) Thiocholine, which was produced due to the hydrolysis of acetylthiocholine (ACTI) by AChE, was estimated by making it react with 5, 5′-dithiobis-(2-nitrobenzoic acid) (DTNB). The chemical, 5-thio-2-nitrobenzoic acid (yellow color complex), which was released due to reaction was estimated using a UV spectrophotometer in the range of 400 to 420 nm with maximal absorption at 412 nm. One hundred microliter of blank rat plasma was taken in the polypropylene vials. To this, 2.8 mL of phosphate buffer (0.01 M, pH 8) and 100 µL of DTNB reagents were added and mixed well. Then, 20 µL of ACTI (26.01 mg/mL of Milli-Q water) was added to the contents of the cuvette to initiate the enzyme reaction. The reaction kinetics was monitored at different time intervals (0, 1, 2, 3, 4 min), and absorbance was noted. 2.8 mL buffer (0.01 M, pH 8.0) and 100 µL DTNB reagent served as blank. Concentrations in the range of 0.03–30 mM were prepared using methanol as a diluent. […] Substrate concentration and reaction time were optimized such that sufficient concentration of ACTI is available to bind with the enzyme to initiate the reaction and also it should not saturate the enzyme. In this study, varying concentrations (100–1000 µM) of ACTI were prepared, and reaction kinetics were observed. In general, the maximum time should be either 2–4 min or even less, because the enzyme might undergo degradation. In the present study, up to 4 min of reaction kinetics (changing the optical density or absorbance) was measured. One unit of AChE activity is defined as the number of µmol of acetylthiocholine iodide hydrolyzed per minute. The specific activity of AChE is expressed in moles/min/mg of protein (Kaur et al. [2015]): AChEActivity=(abs.permin×1000×volumeofenzyme)/(13600×TRM)AChEActivity=abovevalue×1000(nanomolar/min/mL)
(§2) where 13,600 = molar extinction coefficient of DTNB: 1000-molar conversion factor: (TRM) total reaction mixture 3 mL: volume of enzyme (0.1 mL).

AChE [3] = type: in vivo, rat; details: colchicine model
Experimental: as §1, §2

## CCN(C)C(=O)Oc1cccc([C@H](C)N(C)C)c1 [ORSM, rivastigmine]
[1]; listed as SCP + ORSM
  Acquisition time: 14.66 ± 2.61 s
  No. of crossings: 2.50 ± 0.85
  Time spent in bright comp.: 103.50 ± 16.38 s
  Time spent in darker comp.: 76.50 ± 16.38 s
  Latency time: 41.63 ± 15.66 a s
AChE [2]
  peak AChE inhibition (Emax, maximum inhibition) in plasma: 71.11%
  time of peak AChE inhibition in plasma: 60 min
AChE [2]; 0 min, listed as SCP + ORSM
  % AChE Inhibition: 0.00 ± 0.0543%
AChE [2]; 5 min, listed as SCP + ORSM
  % AChE Inhibition: 26.67 ± 0.1358%
AChE [2]; 10 min, listed as SCP + ORSM
  % AChE Inhibition: 49.99 ± 0.1026%
AChE [2]; 15 min, listed as SCP + ORSM
  % AChE Inhibition: 62.03 ± 0.0877 a,b %
AChE [2]; 20 min, listed as SCP + ORSM
  % AChE Inhibition: 66.09 ± 0.0921%
AChE [2]; 30 min, listed as SCP + ORSM
  % AChE Inhibition: 64.89 ± 0.0895%
AChE [2]; 45 min, listed as SCP + ORSM
  % AChE Inhibition: 70.42 ± 0.0577%
AChE [2]; 60 min, listed as SCP + ORSM
  % AChE Inhibition: 71.11 ± 0.0438%
AChE [2]; 90 min, listed as SCP + ORSM
  % AChE Inhibition: 68.18 ± 0.0298%
AChE [2]; 120 min, listed as SCP + ORSM
  % AChE Inhibition: 64.36 ± 0.0262%
AChE [2]; 180 min, listed as SCP + ORSM
  % AChE Inhibition: 48.89 ± 0.0378%
AChE [2]; 240 min
  % AChE Inhibition: 37.05 ± 0.0184%
AChE [3]
  peak AChE inhibition in rat plasma: 69.56%
  time of peak AChE inhibition in rat plasma: 45 min
AChE [3]; 0 min, listed as COL + ORSM
  % AChE Inhibition in rat plasma: 0.00 ± 0.0811%
AChE [3]; 5 min, listed as COL + ORSM
  % AChE Inhibition in rat plasma: 61.96 ± 0.0469%
AChE [3]; 10 min, listed as COL + ORSM
  % AChE Inhibition in rat plasma: 66.76 ± 0.0195%
AChE [3]; 15 min
  % AChE Inhibition in rat plasma: 65.00 ± 0.0292%
AChE [3]; 20 min, listed as COL + ORSM
  % AChE Inhibition in rat plasma: 66.57 ± 0.0344%
AChE [3]; 30 min, listed as COL + ORSM
  % AChE Inhibition in rat plasma: 66.82 ± 0.0101%
AChE [3]; 60 min, listed as COL + ORSM
  % AChE Inhibition in rat plasma: 67.53 ± 0.0096%
AChE [3]; 90 min, listed as COL + ORSM
  % AChE Inhibition in rat plasma: 61.88 ± 0.0149%
AChE [3]; 120 min, listed as COL + ORSM
  % AChE Inhibition in rat plasma: 60.64 ± 0.0186%
AChE [3]; 180 min, listed as COL + ORSM
  % AChE Inhibition in rat plasma: 47.43 ± 0.0393%

## CCN(C)C(=O)Oc1cccc([C@H](C)N(C)C)c1 [INRSM, rivastigmine]
[1]; listed as SCP + INRSM
  Acquisition time: 11.59 ± 2.37 s
  No. of crossings: 2.17 ± 0.54
  Time spent in bright comp.: 109.67 ± 11.65 s
  Time spent in darker comp.: 70.33 ± 11.65 s
  Latency time: 60.11 ± 16.82 a s
AChE [2]
  peak AChE inhibition (Emax, maximum inhibition) in plasma: 71.95%
  time of peak AChE inhibition in plasma: 10 min
AChE [2]; 0 min, listed as SCP + INRSM
  % AChE Inhibition: 0.00 ± 0.0294%
AChE [2]; 5 min, listed as SCP + INRSM
  % AChE Inhibition: 64.46 ± 0.1016%
AChE [2]; 10 min, listed as SCP + INRSM
  % AChE Inhibition: 71.95 ± 0.0398%
AChE [2]; 15 min, listed as SCP + INRSM
  % AChE Inhibition: 71.82 ± 0.0577 a,b,c %
AChE [2]; 20 min, listed as SCP + INRSM
  % AChE Inhibition: 62.84 ± 0.0565%
AChE [2]; 30 min, listed as SCP + INRSM
  % AChE Inhibition: 63.67 ± 0.0441%
AChE [2]; 45 min, listed as SCP + INRSM
  % AChE Inhibition: 59.44 ± 0.0384%
AChE [2]; 60 min, listed as SCP + INRSM
  % AChE Inhibition: 57.57 ± 0.0314%
AChE [2]; 90 min, listed as SCP + INRSM
  % AChE Inhibition: 56.2 ± 0.317%
AChE [2]; 120 min, listed as SCP + INRSM
  % AChE Inhibition: 51.35 ± 0.0329%
AChE [2]; 180 min, listed as SCP + INRSM
  % AChE Inhibition: 49.26 ± 0.0264%
AChE [3]
  peak AChE inhibition in rat plasma: 76.75%
  time of peak AChE inhibition in rat plasma: 15 min
AChE [3]; 0 min, listed as COL + INRSM
  % AChE Inhibition in rat plasma: 0.00 ± 0.0608%
AChE [3]; 5 min, listed as COL + INRSM
  % AChE Inhibition in rat plasma: 75.74 ± 0.0358%
AChE [3]; 10 min, listed as COL + INRSM
  % AChE Inhibition in rat plasma: 70.41 ± 0.0540%
AChE [3]; 20 min, listed as COL + INRSM
  % AChE Inhibition in rat plasma: 73.66 ± 0.0482%
AChE [3]; 30 min, listed as COL + INRSM
  % AChE Inhibition in rat plasma: 67.33 ± 0.0474%
AChE [3]; 45 min
  % AChE Inhibition in rat plasma: 64.43 ± 0.0388%
AChE [3]; 90 min, listed as COL + INRSM
  % AChE Inhibition in rat plasma: 55.83 ± 0.0401%
AChE [3]; 120 min, listed as COL + INRSM
  % AChE Inhibition in rat plasma: 47.15 ± 0.0392%
AChE [3]; 180 min, listed as COL + INRSM
  % AChE Inhibition in rat plasma: 41.37 ± 0.0410%
